Reference: patent US4837223A, “(S)-alpha-ethyl-2-oxo-1-pyrrolidineacetamide compositions” (UCB Societe Anonyme, priority 1984, dated 1989)

Assays:
[1] = Pharmazie, 37/11, (1982), 753-765; cited from earlier work
[2] = Toxicity, LD50 after intravenous administration, rat; conditions: in vivo, male rat
Text: (§1) Table III below gives, for compounds A and B, the LD50, in mg/kg, determined on the male mouse and the male rat after intravenous administration: […]

[3] = Protection against hypoxia (mouse), survival in atmosphere of progressively decreasing oxygen; type: in vivo, mouse (male, NMRI strain); conditions: for minimal effective dose: Mus musculus, po, read-out: 1st effective dose (increases survival of animals deprived of oxygen, from this dose upwards); for Number of surviving animals, treated: survivors/treated
Text: I. Protection against hypoxia (mouse)
a. Principle (C. GIURGEA and F. MOURAVIEFF-LESUISSE; Proc. Xth Intern. Congr. of the Coll. Intern. Neuro-psych.-Pergamon Press, Oxford and New York, 1978, p. 1623-1631).
Due to the particular sensitivity of the nervous system to this type of aggression, the results obtained in this test can be interpreted as a measure of the resistance of the central nervous system. Compounds which increase the resistance of the animals to this stress are suitable for the treatment and prevention of hypoxic type aggressions of the central nervous system.
The apparatus consists of an airtight transparent cage 37 cm high, 39 cm deep and 97 cm wide. This 140 liter cage is provided with 60 transparent compartments each 6×10×10 cm, making it possible to separately accomodate 60 mice.
A fan ensures circulation of the atmosphere between the compartments through a grid floor. The cage is equipped with a device for introducing nitrogen at a constant flow rate, and with an orifice communicating with the ambient atmosphere. Male mice (NMRI strain) weighing 20 to 22 g, are kept fasting as from the day before the test. The experiment is effected on the following day, simultaneously on 3 groups of 20 mice; a control group is given water (25 ml/kg) orally, and the other two groups are each given orally a compound to be tested.
25 minutes after the administration, the animals are distributed at random amongst the compartments so that none of the three groups is concentrated in a preferred area of the cage.
30 minutes after administration, the cage is closed and nitrogen is admitted into it at a constant flow rate (7.75 liters of technical grade nitrogen per minute) for about 37 minutes, at which stage the atmosphere contains 3.7% oxygen.
The cage is left closed until the critical moment where no more than 3 survivors are observed among the 20 control animals. At that moment, the cage is opened and atmospheric air admitted into it. A few moments later the survivors in each group of animals are counted.
For each dose of compound to be tested, the experiments are repeated once or twice, and the results pooled to obtain a minimum of 40 (or 60) animals treated per dose and 40 (or 60) corresponding control animals.
For each dose of compound tested, the number of surviving animals among those treated with the compound is compared with the number of surviving animals among the control animals. The difference between these numbers expresses the protective activity of the compound against hypoxia caused by oxygen deprivation. The statistical significance (P) of this difference is evaluated by the Fischer-Yates test.

male mouse and male rat = experiment: Toxicity, conclusion from LD50 in mouse and rat; type: in vivo; conditions: for toxicity: intravenous, mouse and rat
Text: as §1

[4] = Toxicity, LD50 after intravenous administration, mouse; conditions: in vivo, male mouse
Text: as §1

[5] = Protection against cerebral ischemia (rats), survival after ligature of the 2 common carotids; type: in vivo, rat (male Wistar); conditions: for lowest active dose (protects against lethality induced by simultaneous ligature of the two carotids, from this dose upwards): intraperitoneal; for Number of surviving animals, treated: survivors/treated, 24 hours
Protocol: II. Protection against cerebral ischemia (rats)
a. Principle (C. GIURGEA and F. MOURAVIEFF-LESUISSE; see above under Ia.
Electroencephalographic controls have shown that the ligature of the 2 common carotids in the rat causes a true cerebral ischemia: the electroencephalogram trace flattens and even becomes isoelectric (electric silence).
Male Wistar rats weighing between 250 and 350 g are anesthetized with pentobarbital administered intraperitoneally at a dose of 50 mg/kg (0.5 ml/100 g).
Immediately after the anesthesia, the animals are administered intraperitoneally with an amount of 0.5 ml/100 g, either the compound to be tested dissolved in an isotonic sodium chloride solution (treated animals), or only an isotonic sodium chloride solution or placebo (control animals). About 20 minutes later, the 2 common carotids are exposed and about 10 minutes later ligatured simultaneously. This operation is effected simultaneously on the control animals and the treated animals.
An hour after administration of the compound to be tested or of the placebo, there is again administered intraperitoneally the same dose of either the compound to be tested (to the treated animals) or the placebo (to the control animals).
5 hours after the first administration, there is administered for the third time the same dose of either the compound to be tested (to the surviving treated animals) or the placebo (to the surviving control animals). 24 hours after the first administration the efficacy of the ligature is verified in all animals, under pentobarbital anesthesia, by section of the carotids downstream of the ligature. The number of surviving animals is recorded among both the treated animals and the control animals. For each dose of compound tested, the number of surviving animals among those treated with the compound is compared with the number of surviving animals among the control animals. The difference expresses the protective activity of the compound against the lethality induced by the simultaneous ligature of the 2 carotids. The statistical significance (P) of this difference is evaluated by the Brandt-Snedecor test.

[6] = intraperitoneal dose 0.32 mmol/kg

SMILES | protective activity against aggressions of the central nervous system caused by hypoxias, cerebral ischemia, etc. [1] | LD50 [2] | minimal effective dose [3] | Number of surviving animals, treated ([3]; oral dose 0.032 mmol/kg) | Number of surviving animals, treated ([3]; oral dose 0.1 mmol/kg) | Number of surviving animals, treated ([3]; oral dose 0.16 mmol/kg) | Number of surviving animals, treated ([3]; oral dose 0.32 mmol/kg) | toxicity (male mouse and male rat) | LD50 [4] | lowest active dose (protects against lethality induced by simultaneous ligature of the two carotids, from this dose upwards) [5] | Number of surviving animals, treated [5, 6] | Number of surviving animals, treated ([5]; intraperitoneal dose 0.64 mmol/kg) | Number of surviving animals, treated ([3]; oral dose 0.016 mmol/kg) | protective activity against hypoxia relative to the racemate ([3]; vs racemate (compound A)) | toxic dose compared with active dose (male mouse and male rat; in vivo) | Number of surviving animals, treated ([5]; intraperitoneal dose 0.1 mmol/kg) | Number of surviving animals, treated ([5]; intraperitoneal dose 0.16 mmol/kg) | protective activity against ischemia relative to the racemate ([5]; vs racemate (compound A))
CCC(C(N)=O)N1CCCC1=O (racemic) [A, Racemic alpha-ethyl-2-oxo-1-pyrrolidineacetamide, reference compound] | possesses a protective activity | 1500 mg/kg | 320 µmol/kg | 16/60 | 7/60 | 12/60 | 30/60 | very low toxicity | 1790 mg/kg | 0.64 mmol/kg | 8/29 | 21/30 |  |  |  |  |  | 
CC[C@@H](C(N)=O)N1CCCC1=O [B, (S)-alpha-ethyl-2-oxo-1-pyrrolidineacetamide] |  | 1040 mg/kg | 32 µmol/kg | 17/40 | 19/40 | 19/40 | 17/40 | very low toxicity | 1080 mg/kg | 0.16 mmol/kg | 19/29 |  | 11/40 | 10 times | toxic dose is well above the active dose | 14/29 | 14/30 | 4 times
